In US20200222406A1, “METHODS FOR TREATING OR PREVENTING CARDIOVASCULAR DISORDERS AND LOWERING RISK OF CARDIOVASCULAR EVENTS” (DALCOR PHARMA UK LTD., LEATHERHEAD, ZUG BRANCH, priority 2017, published 2020):

Legend:
[1] = test system: flow-mediated vasodilatation; assay: Flow-mediated vasodilatation under pharmacological blockade; conditions: Adcy9^Gt/Gt mice
Excerpt: (§1) Selective pharmacological blockade of the signaling pathways responsible for endothelial-dependent vasodilatation (Vanhoutte et al., Acta Physiol (Oxf). (2017) 219:22-96) was then used to identify the mechanism responsible for the improvement observed in Adcy9^Gt/Gt mice.

[2] = test system: endothelial-dependent vasodilatation; assay: ACh-induced endothelial-dependent vasodilatation under selective pharmacological blockade; set-up: species or system mice
Excerpt: as §1

CETP [3] = target: T1, CETP (Homo sapiens, UniProt P11597); conditions: cited from earlier work
T1 construct: endogenous in cells; host or cells: patients in Phase III clinical trials (plasma CETP)
T1 sequence (P11597 18-493): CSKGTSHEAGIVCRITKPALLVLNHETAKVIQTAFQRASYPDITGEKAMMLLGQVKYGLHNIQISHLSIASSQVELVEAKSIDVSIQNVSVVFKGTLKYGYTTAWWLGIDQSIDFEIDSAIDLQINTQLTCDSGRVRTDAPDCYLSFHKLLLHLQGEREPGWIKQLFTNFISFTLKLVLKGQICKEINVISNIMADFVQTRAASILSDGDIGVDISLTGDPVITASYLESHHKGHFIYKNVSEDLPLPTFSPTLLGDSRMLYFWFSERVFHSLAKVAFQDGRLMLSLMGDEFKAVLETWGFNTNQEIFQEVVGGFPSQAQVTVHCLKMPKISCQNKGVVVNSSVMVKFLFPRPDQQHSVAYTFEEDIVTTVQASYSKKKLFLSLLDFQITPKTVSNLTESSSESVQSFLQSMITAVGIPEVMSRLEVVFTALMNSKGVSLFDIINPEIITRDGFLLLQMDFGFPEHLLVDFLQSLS

CETP [4] = target: T1, CETP; conditions: Phase III, with atorvastatin concomitantly vs atorvastatin alone, trial terminated; cited from earlier work
[5] = 600 mg dalcetrapib vs placebo, patients with recent ACS

**Q.** For NC(=NCCC[C@H](N)C(=O)O)N[N+](=O)[O-] [L-NNA], which flow-mediated vasodilatation [1] is on record?
**A.** numerically reduced

**Q.** And the ACh-induced vasodilatation ([2]; Adcy9^Gt/Gt mice)?
**A.** inhibited significantly

**Q.** And the ACh-induced vasodilatation ([2]; WT mice)?
**A.** inhibited significantly

**Q.** What does the source list for CCC(CC)CC1(C(=O)Nc2ccccc2SC(=O)C(C)C)CCCCC1 [dalcetrapib]?
**A.** HDL-c (CETP [3]; [5]): marked increase; cardiovascular events (CETP [3]; [5]): did not show a significant reduction; efficacy relative to statins alone (CETP [3]; Phase III, trial halted): lack of efficacy

**Q.** For Cc1ccc(Cl)c(Nc2ccccc2C(=O)O)c1Cl [meclofenamate], which ACh-induced vasodilatation ([2]; Adcy9^Gt/Gt mice) is on record?
**A.** inhibited

**Q.** With CCOC(=O)N1c2ccc(C(F)(F)F)cc2[C@@H](N(Cc2cc(C(F)(F)F)cc(C(F)(F)F)c2)C(=O)OC)C[C@H]1CC [torcetrapib] as the compound, how does the mortality (CETP [4]) read?
**A.** incidence of mortality
